The experiment deals with T1, CdsN (GST-CdsN) (Chlamydia pneumoniae, UniProt A0ABN3YQA5).
T1 construct: gene yopN; GST tag kept, eluted from glutathione-agarose
T1 sequence (A0ABN3YQA5 1-442): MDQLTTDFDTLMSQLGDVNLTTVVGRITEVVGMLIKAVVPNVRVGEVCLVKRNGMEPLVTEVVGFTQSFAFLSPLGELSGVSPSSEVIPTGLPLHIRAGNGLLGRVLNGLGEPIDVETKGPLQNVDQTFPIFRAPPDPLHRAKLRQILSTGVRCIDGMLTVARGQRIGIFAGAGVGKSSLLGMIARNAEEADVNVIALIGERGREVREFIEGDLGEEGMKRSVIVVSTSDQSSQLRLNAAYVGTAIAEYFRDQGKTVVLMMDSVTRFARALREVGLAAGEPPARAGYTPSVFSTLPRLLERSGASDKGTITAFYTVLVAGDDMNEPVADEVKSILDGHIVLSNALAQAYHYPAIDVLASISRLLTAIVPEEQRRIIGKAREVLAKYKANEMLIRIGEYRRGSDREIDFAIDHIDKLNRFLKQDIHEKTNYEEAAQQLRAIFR
Nature of the experiment: ATP hydrolysis, malachite green phosphate assay. It is filed as biochemical. The note with it: […] ATP, […] Tris-HCl pH […] MgCl2, […] KCl, […] °C, […] min.

`Nc1ncnc2c1ncn2[C@@H]1O[C@H](COP(=O)(O)OP(=O)(O)OP(=O)(O)O)[C@@H](O)[C@H]1O` [ATP]: the “ATP hydrolysis, malachite green phosphate assay” value is given as “ATP hydrolysis by GST-CdsN purified from glutathione-agarose beads was measured using a malachite green assay”.

(Values after PMC2765968, “A novel inhibitor of Chlamydophila pneumoniae protein kinase D (PknD) inhibits phosphorylation of CdsD and suppresses bacterial replication” (BMC Microbiology, 2009).)
